We go through one molecule from US20100273748A1, “ANTIMICROBIAL THERAPY” (priority 2006, published 2010).

Assay [1] concerns CYP24A1. In words: qPCR of CYP24A1 mRNA in cultured keratinocytes. The settings on record: 1,25D3 10^−8M, 24 hours. Format: cell-based, human. On the procedure: Cell culture and stimuli. Human keratinocytes were grown in serum-free EpiLife® cell culture media (Cascade Biologics; Portland, Oreg.) containing 0.06 mM Ca2+ and 1× EpiLife® defined growth supplement (EDGS) at 37° C. under standard tissue culture conditions. Stock cultures were maintained for up to five passages in this media with the addition of 50 U/mL penicillin and 50 μg/mL streptomycin. HaCaT keratinocytes were cultured in DMEM (Sigma, St. Louis, Mo.) with 10% FCS. Cells at 50-70% confluence were stimulated in fresh medium after preincubation with 1,25(OH)2 vitamin D3 (1,25D3; 0.1-100 nM, 4-24 h; Sigma). Alternatively, NHEK were stimulated in the presence of 1,25D3 (0.1-100 nM). […]
Real-time RT-PCR (qPCR). […] Expression of cathelicidin and GAPDH was analysed by real-time RT-PCR. […] Fold induction relative to the vehicle treated control in in vitro experiments was calculated using the comparative Ct method, where ΔΔCt is ΔCt(stimulant)-ΔCt(vehicle), ΔCt is Ct(gene)-Ct(GAPDH) and Ct is the cycle at which an arbitrary detection threshold is crossed. For quantification of transcript abundance in tissue samples target gene expression was normalized to GAPDH and compared to non-treated or non-injured skin.
A general note: In qPCR the cycle at which signal appears reflects the starting amount.

Assay [2] has as its system cathelicidin. In words: qPCR of cathelicidin mRNA in cultured keratinocytes. The class given is cell-based, human. The settings on record: for increase of cathelicidin mRNA: 24 hours.

On to `C=C1/C(=C\C=C2/CCC[C@]3(C)[C@@H]([C@H](C)CCCC(C)(C)O)CC[C@@H]23)C[C@@H](O)C[C@@H]1O` [1,25D3, 1,25(OH)2 vitamin D3], for which the CYP24A1 transcript abundance result in assay [1] is listed as “strongly upregulated”. The “increase of cathelicidin expression over cells without 1,25D3” value in assay [2] (1,25D3 0.1 nM, then Malp-2, dose dependent) is “up to 60 fold”. Further, the “increase of cathelicidin mRNA” value in assay [2] (10^−7 M 1,25D3 in the absence of butyrate) was “about 75 fold”; in assay [2] (10^−7 M 1,25D3 in the presence of butyrate (2 mM)) it was “over 200 fold”.
